Measurements: publication PMC7215781 (International Journal of Molecular Sciences, 2020)

Target: T1, purified Na,K-ATPase from lamb kidney (α1) (Ovis aries, UniProt P04074)
T1 construct: gene ATP1A1; native enzyme purified from lamb kidney (gift of W. Ball); with Sodium/potassium-transporting ATPase subunit beta-1
Assay: coupled pyruvate kinase/lactate dehydrogenase ATPase assay, NADH absorbance at […] nm, Hill fit
Format: biochemical
Conditions: inhibition; 3 h incubation in K+-free solution; 5 mM ATP, 100 mM NaCl, 10 mM MgCl2; pH 7.3; 37 °C

Which K0.5 does the source give for `C[C@@H]1O[C@@H](O[C@H]2C[C@@H](O)[C@]3(CO)[C@H]4[C@H](O)C[C@]5(C)[C@@H](C6=CC(=O)OC6)CC[C@]5(O)[C@@H]4CC[C@]3(O)C2)[C@H](O)[C@H](O)[C@H]1O` [ouabain] here?
The K0.5 was 157 ± 7 nM.
